Test results published in patent US20240374612A1, “IMIDAZOBENZO[…] TREATMENT OF COGNITIVE AND MOOD SYMPTOMS” (UWM Research Foundation, Inc., priority 2021, published 2024).
Entries after “also recorded” stand apart in the source; their conditions may differ.

Columns and labels:
[1] = system: C57/Bl6 mice subjected to chronic restraint stress (working memory deficit); test: Y-maze alternation task after chronic restraint stress (CRS); format: in vivo; details: acute, 30 min before testing, vs CRS vehicle
Method: Young Animals and chronic stress procedure: C57/Bl6 mice, males and females at 8 weeks old and are kept in normal housing conditions (12 h light ON cycle starting at 7 am/water and food ad libitum) for one week. During this week, animals are single housed and handled to reduce the anxiety-like response toward the experimenter. To induce a working memory deficit, mice are subjected to a chronic restraint stress protocol (CRS). They are placed in a 50 mL Falcon® tube, twice a day, for 1 hour during their diurnal cycle. The time of occurrence of the stress is randomized every day to avoid predictability. CRS is not applied on testing days. Y-maze test occurs 15 hours minimum after the last stressor.
Protocol: Mice are first habituated to the Y-maze apparatus and distal cues during 2 consecutive days over a 10 min free exploration session (one session per day). The next day, animals perform a training session consisting in seven successive trials separated by a 30 s inter-trial interval (ITI); during this training session, mice are familiarized with the experimental procedure (opening and closing of the doors and confinement into the goal arms). For each trial, mice remain in the start-box for a 30 s ITI. Then, the door is opened and the mouse is allowed to enter freely one of the two goal arms; the chosen arm is closed and the choice is recorded. After a 30 s confinement period into the chosen arm, the mouse is removed and brought back to the start-box for a second trial identical to the first one and this procedure is repeated over the series of trials.
The same general procedure used in the training session is implemented 24 h later, except that the ITI was lengthened to 90 s. For this experiment, animals are acutely injected i.p. with vehicle or drug, 30 minutes before the beginning of the test. To dissociate memory deficits from an eventual progressive loss of motivation to alternate over the series, an 8th trial is added to the series which is separated from the 7th trial by a shorter ITI (5 s). All animals failing to alternate at the 8th trial are excluded. The mean alternation rate is calculated and is expressed in percentage (number of alternation done by the animal/total number of alternation possible×100)±SEM. The percentage of alternation during the entire task is considered as an index of working memory performance (50% of being a random alternation rate). Factorial ANOVA is applied to the data to reveal differences between groups. If the ANOVA is significant for group effect (p<0.05), Scheffe post-hoc analysis are conducted to identify which groups are different from each other.
Drug preparation and administration: All drugs are diluted in a vehicle solution containing 85% H2O, 14% propylene glycol (Sigma Aldrich) and 1% Tween 80 (Sigma Aldrich). Working solutions are prepared at a concentration of 10 mg/mL and administered i.p. adjusted to the body weight of each animal. Doses used are either 1, 5, 10 or 20 mg/kg. For all Y maze experiments, animals are acutely injected i.p. with vehicle or drug, 30 minutes before the beginning of the test.

[2] = system: mice (anxiety like behaviors); test: Elevated plus maze (EPM); format: in vivo; details: vs vehicle
Method: The EPM is commonly used in preclinical rodent models to assess anxiety-like behaviors. Briefly, mice are placed in a cross-shaped maze raised at 55 cm from the floor, with 2 open arms facing each other, and 2 closed arms facing each other. During testing, mice are individually placed in the center of the maze facing an open arm and allowed to explore for 10 minutes. Throughout testing, the exploration of each mouse is recorded using a digital camera mounted on the ceiling. After 10 minutes of exploration, the camera is stopped and the mouse is removed from the maze and returned to its home cage. The videos are analyzed using Ethovision XT14 software. Specific parameters considered are: % time spent in the open arms, calculated using ([(total time spent in open arms)/(total time spent in open arms+total time spent in closed arms)]*100) and the number of open arm entries.

α5β3γ2 GABAA receptor = target: T1, α5β3γ2 GABAA receptor (Homo sapiens, UniProt P18507+P31644); test: Electrophysiology in transfected cells (IonWorks Barracuda), PAM effect on current induced by 5 μM GABA; format: cell-based
T1 construct: Full-length cDNAs for GABAA receptor subtypes are transfected into the human embryonic kidney cell line HEK-293T; expressed in transfected cells; host or cells: human mammalian cells (HEK-293T per Procedure B)
Method: (§1) Procedure B: Full-length cDNAs for GABAA receptor subtypes are transfected into the human embryonic kidney cell line HEK-293T. All subtypes are rat clones except for α2, which is a human clone. Cells are patch-clamped at −50 mV in the whole-cell recording configuration. GABA is diluted into the bath and compounds are dissolved in DMSO and diluted into bath solution. Solutions containing GABA or GABA+ compounds are applied to cells for 5 s. Currents are recorded with an Axon 200B patch clamp amplifier. Data is normalized data current expressed as a percentage of the response to GABA alone for each cell.
(§2) Electrophysiological Characterization of GL-III-68 by Procedure B: Human mammalian cells are transfected with human […] GABAA receptors. Cells are incubated with GL-III-68 at a range of concentrations from 0.03 μM to 100 μM. Currents are induced by stimulation with 5 μM GABA and recorded using the IonWorks Barracuda® test platform. Current is normalized to the current induced by 5 μM of GABA in the absence of any allosteric modulator. PAM effect of at different subtypes of GABA^A receptor. % of current was calculated relatively to current produced by 5 μM GABA alone (set to 100%) (FIG. 21). EC50 results are shown below.

α2β3γ2 GABAA receptor = target: T2, α2β3γ2 GABAA receptor (Homo sapiens, UniProt P18507+P47869); test: as above; format: cell-based
T2 construct: Full-length cDNAs for GABAA receptor subtypes are transfected into the human embryonic kidney cell line HEK-293T; expressed in transfected cells; host or cells: human mammalian cells (HEK-293T per Procedure B)
Method: as §1, §2

α3β3γ2 GABAA receptor = target: T3, α3β3γ2 GABAA receptor (Homo sapiens, UniProt P18507+P34903); test: as above; format: cell-based
T3 construct: Full-length cDNAs for GABAA receptor subtypes are transfected into the human embryonic kidney cell line HEK-293T; expressed in transfected cells; host or cells: human mammalian cells (HEK-293T per Procedure B)
Method: as §1, §2

α1β3γ2 GABAA receptor = target: T4, α1β3γ2 GABAA receptor (Homo sapiens, UniProt P14867+P18507); test: as above; format: cell-based
T4 construct: Full-length cDNAs for GABAA receptor subtypes are transfected into the human embryonic kidney cell line HEK-293T; expressed in transfected cells; host or cells: human mammalian cells (HEK-293T per Procedure B)
Method: as §1, §2

[3] = 3 mg/kg i.p., 30 min before testing

T2 sequence (P47869 29-451): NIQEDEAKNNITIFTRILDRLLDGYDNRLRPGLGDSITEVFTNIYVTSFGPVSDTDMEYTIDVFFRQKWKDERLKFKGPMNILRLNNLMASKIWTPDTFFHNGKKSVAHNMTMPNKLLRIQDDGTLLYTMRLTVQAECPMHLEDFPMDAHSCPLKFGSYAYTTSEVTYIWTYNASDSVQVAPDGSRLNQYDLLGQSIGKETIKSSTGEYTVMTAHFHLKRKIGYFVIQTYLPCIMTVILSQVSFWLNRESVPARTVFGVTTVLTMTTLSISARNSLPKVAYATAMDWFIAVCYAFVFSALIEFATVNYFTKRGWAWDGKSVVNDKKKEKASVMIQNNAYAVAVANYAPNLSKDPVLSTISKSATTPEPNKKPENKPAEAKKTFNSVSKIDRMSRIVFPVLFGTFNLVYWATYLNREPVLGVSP
T2 sequence (P28472 26-473 partner): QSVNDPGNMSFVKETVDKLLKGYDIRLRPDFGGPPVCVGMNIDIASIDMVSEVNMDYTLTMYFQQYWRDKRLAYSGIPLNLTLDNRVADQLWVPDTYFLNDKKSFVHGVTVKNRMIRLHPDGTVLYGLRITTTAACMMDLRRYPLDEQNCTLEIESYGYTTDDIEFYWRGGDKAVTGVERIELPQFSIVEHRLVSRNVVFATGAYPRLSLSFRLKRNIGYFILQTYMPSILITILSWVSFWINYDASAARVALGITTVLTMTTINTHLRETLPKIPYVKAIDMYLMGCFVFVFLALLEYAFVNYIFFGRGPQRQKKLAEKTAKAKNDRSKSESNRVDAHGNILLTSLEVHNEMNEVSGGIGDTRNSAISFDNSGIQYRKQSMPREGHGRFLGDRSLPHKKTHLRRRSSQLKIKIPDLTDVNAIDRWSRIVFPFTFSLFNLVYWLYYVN
T2 sequence (P18507 40-475): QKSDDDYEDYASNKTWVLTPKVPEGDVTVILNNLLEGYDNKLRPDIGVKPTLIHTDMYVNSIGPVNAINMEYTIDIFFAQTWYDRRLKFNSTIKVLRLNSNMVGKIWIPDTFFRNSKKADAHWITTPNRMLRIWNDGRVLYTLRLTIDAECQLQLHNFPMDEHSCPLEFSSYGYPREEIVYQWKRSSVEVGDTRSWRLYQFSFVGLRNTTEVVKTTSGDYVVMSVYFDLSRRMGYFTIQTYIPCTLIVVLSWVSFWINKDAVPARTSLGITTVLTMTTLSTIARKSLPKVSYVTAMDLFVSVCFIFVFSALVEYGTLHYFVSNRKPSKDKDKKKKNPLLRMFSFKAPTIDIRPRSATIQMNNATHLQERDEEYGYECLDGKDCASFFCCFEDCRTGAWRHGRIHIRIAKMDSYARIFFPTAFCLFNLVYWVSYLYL
T4 sequence (P14867 28-456): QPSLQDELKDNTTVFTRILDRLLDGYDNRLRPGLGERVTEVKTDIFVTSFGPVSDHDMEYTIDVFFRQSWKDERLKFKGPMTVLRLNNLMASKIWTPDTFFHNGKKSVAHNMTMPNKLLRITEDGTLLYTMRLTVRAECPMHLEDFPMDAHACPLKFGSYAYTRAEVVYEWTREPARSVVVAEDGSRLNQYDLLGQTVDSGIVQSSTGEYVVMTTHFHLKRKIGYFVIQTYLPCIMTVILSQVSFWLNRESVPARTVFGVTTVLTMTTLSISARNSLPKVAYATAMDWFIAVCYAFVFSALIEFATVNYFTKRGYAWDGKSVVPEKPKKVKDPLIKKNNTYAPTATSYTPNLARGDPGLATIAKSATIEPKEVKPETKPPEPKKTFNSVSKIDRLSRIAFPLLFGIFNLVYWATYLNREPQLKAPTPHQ
T4 sequence (P28472 26-473 partner): as the sequence (P28472 26-473 partner) above
T4 sequence (P18507 40-475): as the sequence (P18507 40-475) above
T3 sequence (P34903 29-492): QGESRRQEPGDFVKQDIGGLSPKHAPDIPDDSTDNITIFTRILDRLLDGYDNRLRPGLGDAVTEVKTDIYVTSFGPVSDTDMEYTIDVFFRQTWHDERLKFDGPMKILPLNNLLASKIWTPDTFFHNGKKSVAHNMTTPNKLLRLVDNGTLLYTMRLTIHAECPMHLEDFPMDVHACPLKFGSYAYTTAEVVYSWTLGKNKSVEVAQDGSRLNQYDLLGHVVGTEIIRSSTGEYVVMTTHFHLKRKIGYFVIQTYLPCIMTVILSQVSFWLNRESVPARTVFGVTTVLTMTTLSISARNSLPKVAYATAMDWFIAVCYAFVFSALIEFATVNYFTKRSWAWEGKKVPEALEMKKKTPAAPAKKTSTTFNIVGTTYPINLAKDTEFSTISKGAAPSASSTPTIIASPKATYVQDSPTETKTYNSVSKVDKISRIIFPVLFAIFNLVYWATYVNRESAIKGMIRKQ
T3 sequence (P28472 26-473 partner): as the sequence (P28472 26-473 partner) above
T3 sequence (P18507 40-475): as the sequence (P18507 40-475) above
T1 sequence (P31644 32-462): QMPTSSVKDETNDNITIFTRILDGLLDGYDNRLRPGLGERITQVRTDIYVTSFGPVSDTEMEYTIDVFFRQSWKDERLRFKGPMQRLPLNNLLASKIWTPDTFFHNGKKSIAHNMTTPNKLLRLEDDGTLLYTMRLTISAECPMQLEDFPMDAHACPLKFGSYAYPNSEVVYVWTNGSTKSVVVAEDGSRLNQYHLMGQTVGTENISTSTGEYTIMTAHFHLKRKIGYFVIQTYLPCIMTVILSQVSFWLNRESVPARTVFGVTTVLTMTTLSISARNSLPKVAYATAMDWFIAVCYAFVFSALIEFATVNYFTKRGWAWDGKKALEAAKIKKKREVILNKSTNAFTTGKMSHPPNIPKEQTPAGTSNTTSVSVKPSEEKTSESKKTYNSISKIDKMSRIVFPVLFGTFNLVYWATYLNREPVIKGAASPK
T1 sequence (P28472 26-473 partner): as the sequence (P28472 26-473 partner) above
T1 sequence (P18507 40-475): as the sequence (P18507 40-475) above

In the case of `C#Cc1ccc2c(c1)C(c1ccccc1Cl)=N[C@@H](C)c1c(C(=O)NC)ncn1-2` [FR-III-17, (S)-6-(2-chlorophenyl)-8-ethynyl-N,4-dimethyl-4H-benzo[f]imidazo[1,5-a][1,4]diazepine-3-carboxamide], the “reversal of CRS-induced reduction of alternation rate (Y-maze)” value ([1]; 0.3 mg/kg i.p.) is reported as “significantly reversed”, the “reversal of CRS-induced reduction of alternation rate (Y-maze)” value ([1]; 1 mg/kg i.p.) is reported as “significantly reversed” and the “reversal of CRS-induced reduction of alternation rate (Y-maze)” value ([1]; 3 mg/kg i.p.) is reported as “significantly reversed”. The “% distance traveled in the open arms (EPM)” value [2, 3] was “significantly increase”, the “% entries in the open arms (EPM)” value [2, 3] was “significantly increase” and the “% time in the open arms (EPM)” value [2, 3] was “significantly increase”.
`CCNC(=O)c1ncn2c1[C@@H](C)N=C(c1ccccc1F)c1cc(C3CC3)ccc1-2` [GL-III-68, (R)-8-Cyclopropyl-N-ethyl-6-(2-fluorophenyl)-4-methyl-4H-benzo[f]imidazo[1,5-a][1,4]diazepine-3-carboxamide] was tested, and the “reversal of CRS-induced reduction of alternation rate (Y-maze)” value ([1]; 10 mg/kg i.p.) was “reversed”, the EC50 (α5β3γ2 GABAA receptor) was under 0.03 µM and the Emax (α5β3γ2 GABAA receptor; α5β3γ2, % of current produced by 5 μM GABA alone (set to 100%)) was 188%. The EC50 (α2β3γ2 GABAA receptor) was 1.91 µM, the Emax (α2β3γ2 GABAA receptor; α2β3γ2, % of current produced by 5 μM GABA alone (set to 100%)) was 224% and the EC50 (α3β3γ2 GABAA receptor) was 3.52 µM. For the same compound, the Emax (α3β3γ2 GABAA receptor; α3β3γ2, % of current produced by 5 μM GABA alone (set to 100%)) was 209%, the EC50 (α1β3γ2 GABAA receptor) was 10.7 µM and the Emax (α1β3γ2 GABAA receptor; α1β3γ2, % of current produced by 5 μM GABA alone (set to 100%)) was 188%.
With `C#Cc1ccc2c(c1)C(c1ccccn1)=N[C@@H](C)c1c(C(=O)NC)ncn1-2` [MYM-III-29, (S)-8-ethynyl-N,4-dimethyl-6-(pyridin-2-yl)-4H-benzo[f]imidazo[1,5-a][1,4]diazepine-3-carboxamide] the “reversal of CRS-induced reduction of alternation rate (Y-maze)” value ([1]; 3 mg/kg i.p.) was “no significant difference between groups”, the “reversal of CRS-induced reduction of alternation rate (Y-maze)” value ([1]; 10 mg/kg i.p.) was “reversed (p<0.05)” and the “distance travelled in the open arms (EPM)” value ([2]; 10 mg/kg i.p.) was “increasing distance travelled in the open arms”.
With `C#Cc1ccc2c(c1)C(c1ccccc1Cl)=N[C@H](C)c1c(-c3nc(CC)no3)ncn1-2` [PM-II-84E, (R)-5-(6-(2-chlorophenyl)-8-ethynyl-4-methyl-4H-benzo[f]imidazo[1,5-a][1,4]diazepin-3-yl)-3-ethyl-1,2,4-oxadiazole] the “reversal of CRS-induced reduction of alternation rate (Y-maze)” value ([1]; 30 mg/kg i.p.) was “reversed”, the “time spent in the open arms (EPM)” value ([2]; 10 mg/kg i.p., 30 min before testing) was “significant effect; also recorded: increasing time spent in the open arms” and the “distance travelled in the open arms (EPM)” value ([2]; 10 mg/kg i.p.) was “trend level effect”.
In the case of `C#Cc1ccc2c(c1)C(c1ccccc1Cl)=N[C@H](C)c1c(-c3nc(C)no3)ncn1-2` [PM-III-57R, (R)-5-(6-(2-chlorophenyl)-8-ethynyl-4-methyl-4H-benzo[f]imidazo[1,5-a][1,4]diazepin-3-yl)-3-methyl-1,2,4-oxadiazole], the “reversal of CRS-induced reduction of alternation rate (Y-maze)” value ([1]; 10 mg/kg i.p.) is reported as “significantly reversed; also recorded: significantly improved alternation rate”.
